Columns and labels:
HDAC8 = molecular target: T1, HDAC8 (Homo sapiens, UniProt Q9BY41); test: In vitro HDAC8 activity assay (Fluor de Lys-HDAC8); type: biochemical; parameters: made in house; conditions: for IC50: Table 1, PROTACs
T1 sequence (Q9BY41 1-377): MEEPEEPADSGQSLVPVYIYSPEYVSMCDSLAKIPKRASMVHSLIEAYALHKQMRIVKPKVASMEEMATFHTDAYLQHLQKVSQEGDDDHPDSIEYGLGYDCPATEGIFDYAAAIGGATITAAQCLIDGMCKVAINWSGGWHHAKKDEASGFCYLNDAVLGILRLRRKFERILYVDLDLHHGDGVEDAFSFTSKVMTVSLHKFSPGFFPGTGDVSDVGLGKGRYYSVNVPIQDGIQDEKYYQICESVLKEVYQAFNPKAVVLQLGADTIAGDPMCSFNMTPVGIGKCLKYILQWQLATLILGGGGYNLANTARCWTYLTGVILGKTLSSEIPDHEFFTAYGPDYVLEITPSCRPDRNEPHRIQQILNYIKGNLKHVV
Method: Recombinant hHDAC8 was produced by Romier et al. in Strasbourg. The HDAC8 activity assays were performed according to the commercial HDAC8 Fluorometric Drug Discovery Kit (Fluor de Lys(R)-HDAC8, BML-KI178) corresponding to the instructions of the manufacturer. As substrate a tetrapeptide connected to aminomethylcoumarin (AMC) H2N-Arg- His-Lys(Ac)-Lys(Ac)-AMC was synthesized as previously described. The enzyme was incubated for 90 min at 37 °C, with a substrate concentration of 50 µM and increasing concentrations of inhibitors. The stop-solution-containing inhibitor was added to stop the hHDAC8 activity, and Trypsin was added to release the AMC. The solution was incubated for 20 min at 37 °C to develop the assay.
(§1) Inhibition was measured at increasing concentration and IC50 was calculated by nonlinear regression with Origin 9.0G software.

HDAC6 [1] = molecular target: T2, HDAC6 (Homo sapiens, UniProt Q9UBN7); test: In vitro HDAC inhibitory activity assay, recombinant HDAC6 (fluorogenic substrate ZMAL); type: biochemical; parameters: purchased BPS Biosciences
T2 sequence (Q9UBN7 1-1215): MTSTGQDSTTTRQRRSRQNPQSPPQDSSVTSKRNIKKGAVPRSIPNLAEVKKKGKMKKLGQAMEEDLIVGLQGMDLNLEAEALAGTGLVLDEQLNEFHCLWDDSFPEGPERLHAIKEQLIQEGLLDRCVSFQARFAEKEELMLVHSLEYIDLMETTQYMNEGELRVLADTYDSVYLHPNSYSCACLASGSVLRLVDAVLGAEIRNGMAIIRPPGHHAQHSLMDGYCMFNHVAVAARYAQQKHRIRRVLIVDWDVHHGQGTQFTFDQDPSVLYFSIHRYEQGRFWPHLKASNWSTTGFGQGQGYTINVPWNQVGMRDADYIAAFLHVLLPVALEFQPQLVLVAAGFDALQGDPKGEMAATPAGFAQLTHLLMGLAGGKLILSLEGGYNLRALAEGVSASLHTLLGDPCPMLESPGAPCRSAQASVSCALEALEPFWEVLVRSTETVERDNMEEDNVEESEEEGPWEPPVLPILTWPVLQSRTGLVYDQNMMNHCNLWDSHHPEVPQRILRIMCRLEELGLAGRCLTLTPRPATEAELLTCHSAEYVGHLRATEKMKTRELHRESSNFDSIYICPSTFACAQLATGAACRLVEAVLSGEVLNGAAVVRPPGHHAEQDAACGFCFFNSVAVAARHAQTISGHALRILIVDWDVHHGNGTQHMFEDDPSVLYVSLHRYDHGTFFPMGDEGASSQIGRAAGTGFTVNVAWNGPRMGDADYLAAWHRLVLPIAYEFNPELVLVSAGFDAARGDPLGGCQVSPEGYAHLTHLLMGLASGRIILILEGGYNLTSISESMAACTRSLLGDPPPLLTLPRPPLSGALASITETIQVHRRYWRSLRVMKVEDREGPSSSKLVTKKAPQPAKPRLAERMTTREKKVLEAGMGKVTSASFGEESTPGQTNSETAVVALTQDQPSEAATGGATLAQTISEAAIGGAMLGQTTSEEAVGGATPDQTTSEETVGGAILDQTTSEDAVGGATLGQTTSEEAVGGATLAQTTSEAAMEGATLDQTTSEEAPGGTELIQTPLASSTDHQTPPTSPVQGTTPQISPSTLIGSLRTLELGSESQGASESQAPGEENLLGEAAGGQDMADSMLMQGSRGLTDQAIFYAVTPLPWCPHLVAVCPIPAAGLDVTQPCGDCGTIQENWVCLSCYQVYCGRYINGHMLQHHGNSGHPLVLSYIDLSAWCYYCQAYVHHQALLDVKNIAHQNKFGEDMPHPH
Method: The in vitro testing on recombinant HDACs was performed as previously described. Recombinant human HDAC1 and −6 were purchased from BPS Biosciences. The enzyme inhibition was determined by using a reported homogenous fluorescence assay. […] Fluorescence intensity was measured at an excitation wavelength of 390 nm and an emission wavelength of 460 nm in a microtiter plate reader (BMG Polarstar).
as §1

IMR-32 cells = test: Cell viability / proliferation (trypan blue, viable cell count) in neuroblastoma cells; type: cell-based, human; conditions: 5 and 10 µM
Method: Moreover, we treated neuroblastoma IMR-32 cells with the remaining PROTACs and counted the resulting viable cells. We quantified the percentage of dead cells as shown in (Figure 5B,C). In addition, cell proliferation was assessed via counting of viable cells (Figure 5D,E). […] As reference, the HDAC8 inhibitor PCI-34501 was used.
Adherent cells were detached using trypsin–EDTA (ThermoFisher Scientific, Bremen, Germany) and pooled with corresponding supernatant, centrifuged, and resuspended in 1 mL of cell culture medium. Cell viability (viable cell number, % viability, % dead cells) was measured by automated trypan blue staining using the Vi-Cell XR Cell Viability Analyzer (Beckman Coulter, Krefeld, Germany).
Figure 5 (A) Neuroblastoma SK-N-BE(2)-C cells; Colony Assay, 10 days (compound treatment within first 96 h). Stained with crystal violet and quantified with ImageJ. (B,C) Trypan Blue assay for detection of dead cells. Neuroblastoma IMR-32 cells were either treated with 5 µM (B) or 10 µM (C). (D,E) Cell proliferation assessed via counting of viable cells. IMR-32 cells were either treated with 5 µM (D) or 10 µM (E) PROTACs. HDAC8i PCI-34501 served as a positive control, untreated (MEM) and solvent (DMSO) treated cells served as negative controls.

[2] = Non-enzymatic stability in assay medium (HPLC); conditions: 37 °C, 10 µM, pH7.4
Method: Non-enzymatic stability of selected final compounds was determined using 10 µM concentration of the tested PROTACs in one of the following assay media; Dulbecco’s modified Eagle medium (DMEM) (50%)/dimethylsulfoxid (10%)/acetonitrile (40%) or DMEM (50%)/dimethylsulfoxid (10%)/methanol (40%) mixture at pH7.4. The formed solution mixtures were incubated for 0, 6, 12, and 24 h at 37 °C. Analyte decomposition was monitored by HPLC using XTerra RP18 column (3.5 mm, 3.9 mm × 100 mm) from the manufacturer Waters (Milford, MA, USA) and two LC-10AD pumps, a SPD-M10A VP PDA detector, and a SIL-HT autosampler, all from the manufacturer Shimadzu (Kyoto, Japan).

HDAC1 = HDAC1 (Homo sapiens, UniProt Q13547); test: HDAC1 degradation in SK-N-BE(2)-C cells (Western blot); conditions: 6 h, up to 10 µM
Method: Total HDAC6, total HDAC1, total HDAC8, and acetyl-histone H4 expression levels, were assessed by Western blot. Total GAPDH protein levels served as a loading control (LC). * unspecific bands obtained through reprobing of the membrane.

HDAC6 [3] = molecular target: T2, HDAC6; test: HDAC6 degradation in SK-N-BE(2)-C cells (Western blot); conditions: 6 h, up to 10 µM
Method: Figure 6 (A) SK-N-BE(2)-C neuroblastoma cells were treated for indicated time points with 10 µM of PROTACs. Degradation of HDAC8 and acetylation of HDAC8 target was analyzed via Western blot. […] Acetylation of HDAC8 target SMC3 and HDAC6 target tubulin, as well as total HDAC8 levels, were assessed by Western blot. Quantified ac-SMC3 or ac-tubulin expression, respectively, was normalized to the respective tubulin loading control and to the solvent control (DMSO). This quantification is reflected by the numbers below each blot. […] Total HDAC6, total HDAC1, total HDAC8, and acetyl-histone H4 expression levels, were assessed by Western blot. Total GAPDH protein levels served as a loading control (LC). * unspecific bands obtained through reprobing of the membrane.
HDAC6 degradation and tubulin hyperacetylation by PROTACs and control compounds
Left: SK-N-BE(2)-C neuroblastoma cells were treated for 6 h with indicated PROTACs (10 µM
each). Total HDAC6, acetyl-tubulin and total tubulin (LC #1: loading control #1) expression levels,
were assessed by western blot. Total GAPDH protein levels served as a second loading control
(LC #2). Right: presentation of quantified acetyl-tubulin levels, normalized to the DMSO control

HDAC1, sequence (Q13547 whole entry): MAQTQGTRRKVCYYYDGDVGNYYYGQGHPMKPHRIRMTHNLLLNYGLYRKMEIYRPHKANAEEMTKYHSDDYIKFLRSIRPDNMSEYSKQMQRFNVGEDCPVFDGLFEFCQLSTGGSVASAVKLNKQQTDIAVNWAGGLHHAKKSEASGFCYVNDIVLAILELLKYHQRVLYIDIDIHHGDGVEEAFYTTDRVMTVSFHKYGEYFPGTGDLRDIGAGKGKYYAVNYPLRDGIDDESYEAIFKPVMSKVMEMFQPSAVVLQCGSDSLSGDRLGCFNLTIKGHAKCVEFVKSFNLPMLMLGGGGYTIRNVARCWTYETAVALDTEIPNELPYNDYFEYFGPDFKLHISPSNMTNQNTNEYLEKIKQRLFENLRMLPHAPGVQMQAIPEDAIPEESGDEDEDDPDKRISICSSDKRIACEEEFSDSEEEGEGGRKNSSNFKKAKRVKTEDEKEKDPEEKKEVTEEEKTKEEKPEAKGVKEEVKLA

Row | SMILES | HDAC8 inhibitory activity (HDAC8; negative control) | HDAC6 inhibitory activity (HDAC6 [1]; negative control) | Effect in cell proliferation assay (viable cell count) (IMR-32 cells) | IC50 (HDAC8) | SI (HDAC6/HDAC8) (HDAC8; selectivity index, HDAC6 over HDAC8) | IC50 (HDAC6 [1]) | Non-enzymatic stability, compound remaining ([2]; 6 h) | Non-enzymatic stability, compound remaining ([2]; 24 h) | HDAC1 degradation (HDAC1) | HDAC6 degradation (HDAC6 [3]) | inhibition at 1 µM (HDAC6 [1]; 1 µM, read-out: HDAC6 % inhib. at given conc.) | inhibition at 10 µM (HDAC6 [1]; 10 µM, read-out: HDAC6 % inhib. at given conc.)
1 | COC(=O)c1ccc(C)c(NCc2ccc(OCc3cn(CCCCCC(=O)Nc4cccc5c4C(=O)N(C4CCC(=O)NC4=O)C5=O)nn3)cc2)c1 (centres unmarked) [33a] | did not demonstrate a strong inhibitory activity | did not demonstrate a strong inhibitory activity | – | – | – | – | – | – | – | – | – | –
2 | COc1ccc(C(=O)NO)cc1NC(=O)c1ccc(NC(=O)CCCCCCCNc2cccc3c2C(=O)N(C2CCC(=O)NC2=O)C3=O)cc1 (centres unmarked) [CRBN_1b] | – | – | strongest effect | 0.81 ± 0.17 µM | 0.7 | 0.56 ± 0.1 µM | 100.0% | 91.6% | do not degrade | do not degrade | – | –
3 | O=C(COc1ccc(CNc2cc(C(=O)NO)ccc2Cl)cc1)NCCCCCNC(=O)CC12CC3CC(CC(C3)C1)C2 [HyT_1p] | – | – | strongest effect | 0.75 ± 0.09 µM | – | – | – | – | – | – | 12.4% | 72.8%

Reference: PMC9322761, “Design, Synthesis and Biological Characterization of Histone Deacetylase 8 (HDAC8) Proteolysis Targeting Chimeras (PROTACs) with Anti-Neuroblastoma Activity” (International Journal of Molecular Sciences, 2022)
